Patent publication US8293700B2, “Anti-bacterial composition especially for controlling gram-negative bacteria, comprising a peptide and an advantageously hydrophobic anti-bacterial agent” (Cellectis, priority 2003, dated 2012)
Where no end group is shown, it is not given here.

How the values were obtained:
eukaryotic cells = conditions: cited from earlier work; for Localization in the eukaryotic cells: chemically coupled to the peroxydase protein or IgG, WO 01/64738
[1] = tested on: Escherichia coli ATCC 25922; assay: Internalization of DPV fluorescent conjugates in E. coli (epifluorescence microscopy); format: cell-based; conditions: tested as Bodipy conjugate, 1 μM, 30 minutes at 37° C., non-fixed bacteria
Experimental: (§1) The bacteria in an exponential phase of culture were centrifuged and washed three times with the 10 mM, pH7.4 sodium phosphate buffer (NAPB buffer). The bacterial concentration was adjusted to 1×10^6 cfu/ml (colony-forming units) in the NAPB buffer. 50 μl of the bacterial suspension was deposited on a poly-L-Lysine slide. After 30 minutes incubation at 37° C. in a humid chamber, the bacteria immobilized on the slide were rinsed three times with the NAPB buffer. A 50 μl solution of DPV-Bodipy or DPV-TMR conjugate or control product was, deposited on the bacteria. After incubation for 30 minutes at 37° C. in a humidity chamber and away from light, the slides were rinsed three times with the NAPB buffer. The bacteria may be fixed on the slide by incubating 20 minutes at 37° C., away from light. A drop of 50% PBS/Glycerol was deposited on the slide and covered by a cover glass. After sealing the cover glass on the slide, bacterial fluorescence was observed under a Leica epifluorescence optical microscope (40× or 63× immersion lens). The images were taken with a digital Nikon Coolpix camera with maximum zoom and a 0.63× adapter. A more detailed analysis was performed with a confocal Bio-rad MRC 600 microscope (BIO-RAD Microscience Ltd., Hemel Hempstead, England), provided with an inverse optical microscope and an ×100 immersion lens. The bacteria were visualized by their fluorescence after excitation with a krypton/argon laser. Several sections of 0.1-0.2 μm bacteria were made.
The immobilized bacteria on a poly-L-Lysine slide were incubated with 1 μM of DPV-Bodipy conjugate for 30 minutes at 37° C.
The E. coli bacteria were incubated for 30 minutes at 37° C. with 1 μM of DPV-Bodipy conjugate, as described in paragraph I.8.a. The internalization of fluorescent DPV-Bodipy conjugates in the non-fixed bacteria was visualized under an epifluorescence microscope. […] With the DPV11 and DPV12 peptides (FIGS. 31 and 3J), heterogeneous fluorescence levels in one single bacterial population was obtained. The internalization properties of these peptides were weaker. […] (FIG. 3L).
The internalization of the DPV3 TMR conjugate was evaluated on E. coli bacteria immobilized on a poly-L-Lysine slide or in suspension. The bacteria were incubated with 1 μM of DPV3-TMR conjugate or the Cyst-TMR control for 30 minutes at 37° C., and then either fixed or not on the slide before visualization in an epifluorescence optical microscope.

[2] = tested on: Gram-negative bacterium (E. coli, P. aeruginosa); assay: Classification of DPVs by internalization level in the two bacterial strains; format: cell-based; conditions: for Internalization properties in prokaryotic cells (Gram-negative bacteria): compared with the eukaryotic cell; for Classification of DPVs: level of internalization: DPV-Bodipy conjugates, accumulation in bacterial cytoplasm, E. coli and P. aeruginosa
Experimental: as §1
Generally, the internalization of DPV is almost identical for the two bacterial strains that were studied.

[3] = tested on: Pseudomonas aeruginosa ATCC 27853; assay: Internalization of DPV-Bodipy conjugates in P. aeruginosa (epifluorescence microscopy); format: cell-based; conditions: tested as Bodipy conjugate, 1 μM, 30 minutes at 37° C.
Experimental: as §1, with “A more detailed analysis was performed with a confocal Bio-rad MRC 600 microscope (BIO-RAD Microscience Ltd., Hemel Hempstead, England), provided with an inverse optical microscope and an ×100 immersion lens.” left out, “Several sections of 0.1-0.2 μm bacteria were made.” left out

P. aeruginosa = assay: Confocal microscopy localization in P. aeruginosa; format: cell-based, Pseudomonas aeruginosa; conditions: 3 μM, 37° C., 30 mins., bacteria fixed
Experimental: as §1, with “A more detailed analysis was performed with a confocal Bio-rad MRC 600 microscope (BIO-RAD Microscience Ltd., Hemel Hempstead, England), provided with an inverse optical microscope and an ×100 immersion lens.” left out, “Several sections of 0.1-0.2 μm bacteria were made.” left out

E. coli ATCC 25922 = assay: Chessboard method, DPV peptide and erythromycin, E. coli; format: cell-based, Escherichia coli; conditions: MH medium, 18 hours at 37° C.
Experimental: The dilution ranges were prepared according to a geometric progression of ration 2. 25 μl of the product solutions in MH medium with a concentration four times higher than the desired final concentration or 25 μl of the MH medium (for the lines 0), were distributed in the wells according to the chart below (Table 2), in order to obtain a final volume of 50 μl per well: An isolated colony of the bacterium E. coli ATCC 25922 or P. aeruginosa ATCC 27853 was placed in suspension in 3 to 5 ml of the MH culture medium and incubated at 37° C. for one night, while stirring. From this night culture, a culture in exponential growth phase of the strain was made; the MH medium was seeded at 1/50 é with the night culture and incubated for two hours at 37° C., while stirring. The bacterial concentration was adjusted to 5×10^5-10 s cfu/ml (colony-forming units) in the MH medium. […] The CMI was expressed in μg/ml (mg/1). […] An index below or equal to 0.5 indicates a synergy, an index above 2, an antagonism.

Substance | Internalization properties in the eukaryotic cell (eukaryotic cells) | Internalization in E. coli (description of FIG. 3) [1] | Internalization properties in prokaryotic cells (Gram-negative bacteria) [2] | Localization in the eukaryotic cells (eukaryotic cells) | Classification of DPVs: level of internalization [2] | Internalization in P. aeruginosa compared with E. coli (FIG. 5) [3] | Localization of Bodipy conjugate in P. aeruginosa (confocal, FIG. 6) (P. aeruginosa) | CMI, product alone (E. coli ATCC 25922) [µg/mL]
Ala Lys Thr Gly Lys Arg Lys Arg Ser Gly (AKTGKRKRSG; C-terminal Cys added; listed as Homo sapiens) [DPV11] | do not have any internalization properties | weaker | same property | – | – | – | – | –
Arg Lys Lys Arg Arg Arg Glu Ser Arg Arg Ala Arg Arg Ser Pro Arg His Leu (RKKRRRESRRARRSPRHL; C-terminal Cys; listed as Homo sapiens) [DPV3.10] | – | highly penetrating | – | cytoplasmic localization peptides | elevated internalization | – | – | –
Asn Pro Gly Val Ser Thr Val Val Leu Gly Ala Tyr Asp Leu Arg Arg Arg Glu Arg Gin Ser Arg (NPGVSTVVLGAYDLRRRERQSR; N-terminal Cys; listed as Homo sapiens) [DPV19] | do not have any internalization properties | did not penetrate into the bacteria | same property | – | – | – | – | –
Gin Gly Lys Ser Lys Arg Glu Lys Lys Asp Arg Val Phe (QGKSKREKKDRVF; C-terminal Cys; listed as Homo sapiens) [DPV12] | do not have any internalization properties | weaker | same property | – | – | – | – | –
Gly Ala Tyr Asp Leu Arg Arg Arg Glu Arg Gin Ser Arg Leu Arg Arg Arg Glu Arg Gin Ser Arg (GAYDLRRRERQSRLRRRERQSR; N-terminal Cys; listed as Homo sapiens) [DPV15b] | – | – | – | nuclear localization peptides | weak internalization | – | – | –
Gly Arg Pro Arg Glu Ser Gly Lys Lys Arg Lys Arg Lys Arg Leu Lys Pro (GRPRESGKKRKRKRLKP; C-terminal Cys; listed as Homo sapiens) [DPV6] | – | highly penetrating | – | cytoplasmic localization peptides | medium internalization | more internalizing in P. aeruginosa | – | –
Gly Lys Arg Lys Lys Lys Gly Lys Leu Gly Lys Lys Arg Asp Pro (GKRKKKGKLGKKRDP; C-terminal Cys; listed as Homo sapiens) [DPV7] | – | – | – | cytoplasmic localization peptides | medium internalization | – | – | –
Gly Lys Arg Lys Lys Lys Gly Lys Leu Gly Lys Lys Arg Pro Arg Ser Arg (GKRKKKGKLGKKRPRSR; C-terminal Cys; listed as Homo sapiens) [DPV7b] | – | – | – | cytoplasmic localization peptides | medium internalization | more internalizing in P. aeruginosa than in E. coli | able to pass through the external membrane | –
Leu Arg Arg Glu Arg Gin Ser Arg Leu Arg Arg Glu Arg Gin Ser Arg (LRRERQSRLRRERQSR; C-terminal Cys; listed as Homo sapiens) [DPV15] | – | highly penetrating | – | nuclear localization peptides | medium internalization | – | – | –
RKKRRRESRKKRRRES [DPV3] | – | highly penetrating | – | cytoplasmic localization peptides | elevated internalization | – | able to pass through the external membrane | 128
Val Lys Arg Gly Leu Lys Leu Arg Gin Lys Tyr Asn Lys Arg Ala Met Asp Tyr (VKRGLKLRQKYNKRAMDY; N-terminal Cys added; listed as Homo sapiens) [DPV1121] | – | – | – | nuclear localization peptides | weak internalization | – | – | –
Val Lys Arg Gly Leu Lys Leu Arg His Val Arg Pro Arg Val Thr Arg Met Asp Val (VKRGLKLRHVRPRVTRMDV; N-terminal Cys added; listed as Homo sapiens) [DPV1047] | – | – | – | nuclear localization peptides | weak internalization | – | – | –
